In test [1] the target is Sodium channel protein type 9 subunit alpha (Homo sapiens, UniProt Q15858). The experiment in a line: Inhibition of human NaV1.7 at -140 mV holding potential by whole-cell patch clamp assay. On the technique in general: Patch clamp records ionic current or voltage across a cell membrane.
Test [2] has as its target Sodium channel protein type 5 subunit alpha (Homo sapiens, UniProt Q14524). Put plainly: Inhibition of human NaV1.5 at -140 mV holding potential by whole-cell patch clamp assay.

Bridge positions count the residues as written; N and C are the ends. Peptide text beside a SMILES is read from it.

Sequence of Sodium channel protein type 9 subunit alpha (Q15858 whole entry): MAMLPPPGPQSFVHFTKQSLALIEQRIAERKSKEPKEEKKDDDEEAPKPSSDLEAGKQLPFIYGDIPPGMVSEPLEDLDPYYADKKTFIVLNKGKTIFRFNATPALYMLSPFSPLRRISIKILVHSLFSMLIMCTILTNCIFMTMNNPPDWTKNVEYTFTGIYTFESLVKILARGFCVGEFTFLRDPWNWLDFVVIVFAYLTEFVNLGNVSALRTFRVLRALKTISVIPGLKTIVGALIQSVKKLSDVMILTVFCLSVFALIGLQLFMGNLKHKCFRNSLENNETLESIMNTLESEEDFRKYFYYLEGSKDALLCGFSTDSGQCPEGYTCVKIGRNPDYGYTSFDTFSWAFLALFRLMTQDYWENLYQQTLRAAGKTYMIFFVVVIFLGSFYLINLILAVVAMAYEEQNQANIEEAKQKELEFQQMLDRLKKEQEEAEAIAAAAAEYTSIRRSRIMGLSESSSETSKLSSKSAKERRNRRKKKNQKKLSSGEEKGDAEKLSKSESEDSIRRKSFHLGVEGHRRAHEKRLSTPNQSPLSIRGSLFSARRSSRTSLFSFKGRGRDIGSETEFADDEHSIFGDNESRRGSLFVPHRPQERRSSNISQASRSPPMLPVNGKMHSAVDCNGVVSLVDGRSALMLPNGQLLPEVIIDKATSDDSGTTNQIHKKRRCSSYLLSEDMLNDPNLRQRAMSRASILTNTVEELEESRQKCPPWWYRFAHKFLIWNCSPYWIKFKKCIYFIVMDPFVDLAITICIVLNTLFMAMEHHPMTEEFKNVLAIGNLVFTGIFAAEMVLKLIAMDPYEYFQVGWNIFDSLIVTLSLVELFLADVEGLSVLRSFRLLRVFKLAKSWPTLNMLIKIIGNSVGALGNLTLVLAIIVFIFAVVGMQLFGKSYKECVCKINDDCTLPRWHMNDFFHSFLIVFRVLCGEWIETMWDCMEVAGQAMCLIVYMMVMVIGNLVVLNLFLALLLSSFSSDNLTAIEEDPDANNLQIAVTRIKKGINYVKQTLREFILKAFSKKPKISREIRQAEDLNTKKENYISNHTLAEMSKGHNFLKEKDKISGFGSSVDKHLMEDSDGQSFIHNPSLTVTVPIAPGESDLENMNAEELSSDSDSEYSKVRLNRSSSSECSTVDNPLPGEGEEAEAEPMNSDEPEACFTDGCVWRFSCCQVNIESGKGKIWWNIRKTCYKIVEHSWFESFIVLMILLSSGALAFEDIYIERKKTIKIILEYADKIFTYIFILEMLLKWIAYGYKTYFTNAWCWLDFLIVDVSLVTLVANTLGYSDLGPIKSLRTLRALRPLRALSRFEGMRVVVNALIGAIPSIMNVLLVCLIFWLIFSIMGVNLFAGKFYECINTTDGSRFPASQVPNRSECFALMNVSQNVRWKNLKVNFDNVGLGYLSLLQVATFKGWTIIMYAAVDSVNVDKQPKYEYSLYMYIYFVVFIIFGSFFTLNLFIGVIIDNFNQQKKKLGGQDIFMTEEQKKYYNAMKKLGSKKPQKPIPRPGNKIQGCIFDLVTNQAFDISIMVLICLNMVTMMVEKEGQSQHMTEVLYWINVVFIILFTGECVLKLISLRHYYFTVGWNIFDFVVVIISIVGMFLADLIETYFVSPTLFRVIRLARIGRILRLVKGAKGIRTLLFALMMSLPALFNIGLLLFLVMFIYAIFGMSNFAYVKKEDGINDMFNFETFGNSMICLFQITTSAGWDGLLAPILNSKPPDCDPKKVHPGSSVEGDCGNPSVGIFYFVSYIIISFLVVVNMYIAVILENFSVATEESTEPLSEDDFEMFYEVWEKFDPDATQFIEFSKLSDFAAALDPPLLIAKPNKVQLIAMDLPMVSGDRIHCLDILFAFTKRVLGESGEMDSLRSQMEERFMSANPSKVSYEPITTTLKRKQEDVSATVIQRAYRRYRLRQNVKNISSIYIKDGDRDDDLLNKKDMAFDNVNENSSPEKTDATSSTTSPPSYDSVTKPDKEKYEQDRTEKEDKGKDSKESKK
Sequence of Sodium channel protein type 5 subunit alpha (Q14524 whole entry): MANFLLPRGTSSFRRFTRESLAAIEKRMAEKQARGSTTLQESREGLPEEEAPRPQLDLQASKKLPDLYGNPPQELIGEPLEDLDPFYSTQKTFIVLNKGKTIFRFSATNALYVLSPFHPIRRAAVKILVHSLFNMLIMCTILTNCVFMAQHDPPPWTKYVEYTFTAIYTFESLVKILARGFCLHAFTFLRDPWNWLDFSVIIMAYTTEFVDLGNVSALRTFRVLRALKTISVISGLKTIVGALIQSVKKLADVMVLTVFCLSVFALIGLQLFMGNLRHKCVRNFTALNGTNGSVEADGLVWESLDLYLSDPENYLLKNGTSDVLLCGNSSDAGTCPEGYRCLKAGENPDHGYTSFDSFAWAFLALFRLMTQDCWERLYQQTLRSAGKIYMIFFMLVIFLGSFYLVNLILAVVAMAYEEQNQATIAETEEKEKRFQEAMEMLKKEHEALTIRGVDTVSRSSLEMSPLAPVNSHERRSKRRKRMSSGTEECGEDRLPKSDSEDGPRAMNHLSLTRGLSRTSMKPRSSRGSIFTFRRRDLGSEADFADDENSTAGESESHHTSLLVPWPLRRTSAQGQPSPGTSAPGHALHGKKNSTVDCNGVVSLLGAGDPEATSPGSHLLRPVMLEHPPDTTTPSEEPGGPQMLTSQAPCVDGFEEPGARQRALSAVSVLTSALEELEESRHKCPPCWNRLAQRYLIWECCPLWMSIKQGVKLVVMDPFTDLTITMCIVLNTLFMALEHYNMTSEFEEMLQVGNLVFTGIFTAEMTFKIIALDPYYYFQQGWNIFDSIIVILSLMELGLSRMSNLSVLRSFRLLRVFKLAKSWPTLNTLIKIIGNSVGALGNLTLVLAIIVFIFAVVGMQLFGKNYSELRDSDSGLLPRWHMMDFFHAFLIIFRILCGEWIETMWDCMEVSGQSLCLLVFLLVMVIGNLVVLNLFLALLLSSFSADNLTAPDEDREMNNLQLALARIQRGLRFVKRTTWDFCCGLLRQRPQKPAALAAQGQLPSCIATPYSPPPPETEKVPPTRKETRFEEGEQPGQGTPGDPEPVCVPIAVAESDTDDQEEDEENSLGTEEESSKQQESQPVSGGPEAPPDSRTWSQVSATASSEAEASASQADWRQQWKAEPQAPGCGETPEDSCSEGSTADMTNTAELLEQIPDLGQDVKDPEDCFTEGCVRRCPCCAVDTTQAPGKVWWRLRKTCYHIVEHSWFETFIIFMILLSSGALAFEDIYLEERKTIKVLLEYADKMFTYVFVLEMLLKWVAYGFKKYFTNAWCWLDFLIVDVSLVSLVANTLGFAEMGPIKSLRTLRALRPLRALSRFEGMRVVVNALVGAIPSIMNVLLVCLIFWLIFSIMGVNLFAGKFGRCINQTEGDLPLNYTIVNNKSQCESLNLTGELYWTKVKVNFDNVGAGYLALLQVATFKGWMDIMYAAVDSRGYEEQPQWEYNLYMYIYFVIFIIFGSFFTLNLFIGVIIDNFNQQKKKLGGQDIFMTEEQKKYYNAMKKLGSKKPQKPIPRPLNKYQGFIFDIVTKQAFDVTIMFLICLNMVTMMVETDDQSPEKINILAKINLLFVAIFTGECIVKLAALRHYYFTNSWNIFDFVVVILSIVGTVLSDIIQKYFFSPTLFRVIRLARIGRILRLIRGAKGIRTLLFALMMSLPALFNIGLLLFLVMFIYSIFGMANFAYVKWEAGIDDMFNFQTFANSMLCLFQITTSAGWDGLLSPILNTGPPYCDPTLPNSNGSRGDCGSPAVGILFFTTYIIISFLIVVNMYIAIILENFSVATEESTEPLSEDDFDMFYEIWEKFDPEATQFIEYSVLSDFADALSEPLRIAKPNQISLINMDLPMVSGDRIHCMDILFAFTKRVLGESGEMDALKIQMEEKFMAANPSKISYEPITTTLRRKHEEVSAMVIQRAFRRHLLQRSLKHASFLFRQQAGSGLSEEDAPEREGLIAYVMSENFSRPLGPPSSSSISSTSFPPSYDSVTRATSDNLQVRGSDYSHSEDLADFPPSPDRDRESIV

Turning to `CC[C@H](C)[C@@H]1NC(=O)[C@@H]2CSSC[C@@H]3NC(=O)[C@H](C(C)C)NC(=O)[C@H](CC(C)C)NC(=O)[C@H](CC(N)=O)NC(=O)[C@@H]4CCCN4C(=O)[C@H](C)NC(=O)[C@H](CSSC[C@H](NC(=O)[C@@H](N)CC(=O)O)C(=O)N[C@@H](CC(C)C)C(=O)NCC(=O)N[C@@H](Cc4ccccc4)C(=O)N[C@@H](CCSC)C(=O)N[C@@H](CCCNC(=N)N)C(=O)N[C@@H](CCCCN)C(=O)N2)NC(=O)[C@H](CSSC[C@@H](C(=O)N[C@@H](CCCCN)C(=O)N[C@@H](Cc2ccc(O)cc2)C(=O)N[C@H](C(=O)N[C@@H](Cc2ccccc2)C(N)=O)C(C)C)NC(=O)[C@H](Cc2c[nH]c4ccccc24)NC(=O)[C@H](CCCCN)NC(=O)[C@H](Cc2cnc[nH]2)NC(=O)[C@H]([C@@H](C)O)NC(=O)[C@H](CCCNC(=N)N)NC(=O)[C@H](CO)NC3=O)NC(=O)[C@H](CCCCN)NC(=O)[C@H](CC(=O)O)NC(=O)[C@H](CC(N)=O)NC(=O)[C@H](CC(=O)O)NC(=O)[C@@H]2CCCN2C1=O` (H-DCLGFMRKCIPDNDKCCAPNLVCSRTHKWCKYVF-NH2; disulfide 2-17, 9-23, 16-30), the IC50 (as a rule, the concentration that inhibits the measured activity by half) was 130 nM in test [1] and more than 20000 nM in test [2].

For `CC[C@H](C)[C@@H]1NC(=O)[C@@H]2CSSC[C@@H]3NC(=O)[C@H](C(C)C)NC(=O)[C@H](CC(C)C)NC(=O)[C@H](CC(N)=O)NC(=O)[C@H](C)NC(=O)[C@H](CCCNC(=N)N)NC(=O)[C@H](CSSC[C@H](NC(=O)[C@@H](N)CC(=O)O)C(=O)N[C@@H](CC(C)C)C(=O)NCC(=O)N[C@@H](Cc4ccccc4)C(=O)N[C@@H](CCSC)C(=O)N[C@@H](CCCNC(=N)N)C(=O)N[C@@H](CCCCN)C(=O)N2)NC(=O)[C@H](CSSC[C@@H](C(=O)N[C@@H](CCCCN)C(=O)N[C@@H](Cc2ccc(O)cc2)C(=O)N[C@H](C(=O)N[C@@H](Cc2ccccc2)C(N)=O)C(C)C)NC(=O)[C@H](Cc2c[nH]c4ccccc24)NC(=O)[C@H](CCCCN)NC(=O)[C@H](Cc2cnc[nH]2)NC(=O)[C@H]([C@@H](C)O)NC(=O)[C@H](CCCNC(=N)N)NC(=O)[C@H](CO)NC3=O)NC(=O)[C@H](CCCCN)NC(=O)[C@H](CC(=O)O)NC(=O)[C@H](CC(N)=O)NC(=O)[C@H](CC(=O)O)NC(=O)[C@@H]2CCCN2C1=O` (H-DCLGFMRKCIPDNDKCCRANLVCSRTHKWCKYVF-NH2; disulfide 2-17, 9-23, 16-30), the IC50 in test [1] was 90 nM; in test [2], more than 20000 nM.

Consider `CC[C@H](C)[C@@H]1NC(=O)[C@@H]2CSSC[C@@H]3NC(=O)[C@H](C(C)C)NC(=O)[C@H](C)NC(=O)[C@H](CC(N)=O)NC(=O)[C@@H]4CCCN4C(=O)[C@H](CCCNC(=N)N)NC(=O)[C@H](CSSC[C@H](NC(=O)[C@@H](N)CC(=O)O)C(=O)N[C@@H](CC(C)C)C(=O)NCC(=O)N[C@@H](Cc4ccccc4)C(=O)N[C@@H](CCSC)C(=O)N[C@@H](CCCNC(=N)N)C(=O)N[C@@H](CCCCN)C(=O)N2)NC(=O)[C@H](CSSC[C@@H](C(=O)N[C@@H](CCCCN)C(=O)N[C@@H](Cc2ccc(O)cc2)C(=O)N[C@H](C(=O)N[C@@H](Cc2ccccc2)C(N)=O)C(C)C)NC(=O)[C@H](Cc2c[nH]c4ccccc24)NC(=O)[C@H](CCCCN)NC(=O)[C@H](Cc2cnc[nH]2)NC(=O)[C@H]([C@@H](C)O)NC(=O)[C@H](CCCNC(=N)N)NC(=O)[C@H](CO)NC3=O)NC(=O)[C@H](CCCCN)NC(=O)[C@H](CC(=O)O)NC(=O)[C@H](CC(N)=O)NC(=O)[C@H](CC(=O)O)NC(=O)[C@@H]2CCCN2C1=O` (H-DCLGFMRKCIPDNDKCCRPNAVCSRTHKWCKYVF-NH2; disulfide 2-17, 9-23, 16-30), for which the IC50 in test [1] was 190 nM; in test [2] it was more than 20000 nM.

As for `CC[C@H](C)[C@@H]1NC(=O)[C@@H]2CSSC[C@@H]3NC(=O)[C@H](C(C)C)NC(=O)[C@H](CC(C)C)NC(=O)[C@H](CC(N)=O)NC(=O)[C@@H]4CCCN4C(=O)[C@H](CCCNC(=N)N)NC(=O)[C@H](CSSC[C@H](NC(=O)[C@@H](N)CC(=O)O)C(=O)N[C@@H](CC(C)C)C(=O)NCC(=O)N[C@@H](Cc4ccccc4)C(=O)N[C@@H](CCSC)C(=O)N[C@@H](CCCNC(=N)N)C(=O)N[C@@H](CCCCN)C(=O)N2)NC(=O)[C@H](CSSC[C@@H](C(=O)N[C@@H](CCCCN)C(=O)N[C@@H](Cc2ccc(O)cc2)C(=O)N[C@H](C(=O)N[C@@H](Cc2ccccc2)C(N)=O)C(C)C)NC(=O)[C@H](Cc2c[nH]c4ccccc24)NC(=O)[C@H](CCCCN)NC(=O)[C@H](Cc2cnc[nH]2)NC(=O)[C@H]([C@@H](C)O)NC(=O)[C@H](C)NC(=O)[C@H](CO)NC3=O)NC(=O)[C@H](CCCCN)NC(=O)[C@H](CC(=O)O)NC(=O)[C@H](CC(N)=O)NC(=O)[C@H](CC(=O)O)NC(=O)[C@@H]2CCCN2C1=O` (H-DCLGFMRKCIPDNDKCCRPNLVCSATHKWCKYVF-NH2; disulfide 2-17, 9-23, 16-30), the IC50 is 330 nM in test [1] and more than 5000 nM in test [2].

Turning to `CC[C@H](C)[C@@H]1NC(=O)[C@@H]2CSSC[C@@H]3NC(=O)[C@H](C(C)C)NC(=O)[C@H](CC(C)C)NC(=O)[C@H](CC(N)=O)NC(=O)[C@@H]4CCCN4C(=O)[C@H](CCCNC(=N)N)NC(=O)[C@H](CSSC[C@H](NC(=O)[C@@H](N)CC(=O)O)C(=O)N[C@@H](CC(C)C)C(=O)NCC(=O)N[C@@H](Cc4ccccc4)C(=O)N[C@@H](CCSC)C(=O)N[C@@H](CCCNC(=N)N)C(=O)N[C@@H](CCCCN)C(=O)N2)NC(=O)[C@H](CSSC[C@@H](C(=O)N[C@@H](CCCCN)C(=O)N[C@@H](Cc2ccc(O)cc2)C(=O)N[C@H](C(=O)N[C@@H](Cc2ccccc2)C(N)=O)C(C)C)NC(=O)[C@H](Cc2c[nH]c4ccccc24)NC(=O)[C@H](CCCCN)NC(=O)[C@H](Cc2cnc[nH]2)NC(=O)[C@H](C)NC(=O)[C@H](CCCNC(=N)N)NC(=O)[C@H](CO)NC3=O)NC(=O)[C@H](CCCCN)NC(=O)[C@H](CC(=O)O)NC(=O)[C@H](CC(N)=O)NC(=O)[C@H](CC(=O)O)NC(=O)[C@@H]2CCCN2C1=O` (H-DCLGFMRKCIPDNDKCCRPNLVCSRAHKWCKYVF-NH2; disulfide 2-17, 9-23, 16-30), the results for the IC50 in test [1] and in test [2] were 260 nM and more than 5000 nM, respectively.

On to `CC[C@H](C)[C@@H]1NC(=O)[C@@H]2CSSC[C@@H]3NC(=O)[C@H](C(C)C)NC(=O)[C@H](CC(C)C)NC(=O)[C@H](CC(N)=O)NC(=O)[C@@H]4CCCN4C(=O)[C@H](CCCNC(=N)N)NC(=O)[C@H](CSSC[C@H](NC(=O)[C@@H](N)CC(=O)O)C(=O)N[C@@H](CC(C)C)C(=O)NCC(=O)N[C@@H](Cc4ccccc4)C(=O)N[C@@H](CCSC)C(=O)N[C@@H](CCCNC(=N)N)C(=O)N[C@@H](CCCCN)C(=O)N2)NC(=O)[C@H](CSSC[C@@H](C(=O)N[C@@H](CCCCN)C(=O)N[C@@H](Cc2ccc(O)cc2)C(=O)N[C@H](C(=O)N[C@@H](Cc2ccccc2)C(N)=O)C(C)C)NC(=O)[C@H](Cc2c[nH]c4ccccc24)NC(=O)[C@H](CCCCN)NC(=O)[C@H](Cc2cnc[nH]2)NC(=O)[C@H](CCC(=O)O)NC(=O)[C@H](CCCNC(=N)N)NC(=O)[C@H](CO)NC3=O)NC(=O)[C@H](CCCCN)NC(=O)[C@H](CC(=O)O)NC(=O)[C@H](CC(N)=O)NC(=O)[C@H](CC(=O)O)NC(=O)[C@@H]2CCCN2C1=O` (H-DCLGFMRKCIPDNDKCCRPNLVCSREHKWCKYVF-NH2; disulfide 2-17, 9-23, 16-30), for which the figures for the IC50 in test [1] and in test [2] were 34 nM and more than 10000 nM, respectively.

For the compound `CC[C@H](C)[C@@H]1NC(=O)[C@@H]2CSSC[C@@H]3NC(=O)[C@H](C(C)C)NC(=O)[C@H](CC(C)C)NC(=O)[C@H](CC(N)=O)NC(=O)[C@@H]4CCCN4C(=O)[C@H](CCCNC(=N)N)NC(=O)[C@H](CSSC[C@H](NC(=O)[C@@H](N)CC(=O)O)C(=O)N[C@@H](CC(C)C)C(=O)NCC(=O)N[C@@H](Cc4ccccc4)C(=O)N[C@@H](CCSC)C(=O)N[C@@H](CCCNC(=N)N)C(=O)N[C@@H](CCCCN)C(=O)N2)NC(=O)[C@H](CSSC[C@@H](C(=O)N[C@@H](CCCCN)C(=O)N[C@@H](Cc2ccc(O)cc2)C(=O)N[C@H](C(=O)N[C@@H](Cc2ccccc2)C(N)=O)C(C)C)NC(=O)[C@H](Cc2c[nH]c4ccccc24)NC(=O)[C@H](CCCCN)NC(=O)[C@H](Cc2cnc[nH]2)NC(=O)[C@H](CC(C)C)NC(=O)[C@H](CCCNC(=N)N)NC(=O)[C@H](CO)NC3=O)NC(=O)[C@H](CCCCN)NC(=O)[C@H](CC(=O)O)NC(=O)[C@H](CC(N)=O)NC(=O)[C@H](CC(=O)O)NC(=O)[C@@H]2CCCN2C1=O` (H-DCLGFMRKCIPDNDKCCRPNLVCSRLHKWCKYVF-NH2; disulfide 2-17, 9-23, 16-30), the IC50 came out at 4 nM in test [1] and 4600 nM in test [2].

Take `CC[C@H](C)[C@@H]1NC(=O)[C@@H]2CSSC[C@@H]3NC(=O)[C@H](C(C)C)NC(=O)[C@H](CC(C)C)NC(=O)[C@H](CC(N)=O)NC(=O)[C@@H]4CCCN4C(=O)[C@H](CCCNC(=N)N)NC(=O)[C@H](CSSC[C@H](NC(=O)[C@@H](N)CC(=O)O)C(=O)N[C@@H](CC(C)C)C(=O)NCC(=O)N[C@@H](Cc4ccccc4)C(=O)N[C@@H](CCSC)C(=O)N[C@@H](CCCNC(=N)N)C(=O)N[C@@H](CCCCN)C(=O)N2)NC(=O)[C@H](CSSC[C@@H](C(=O)N[C@@H](CCCCN)C(=O)N[C@@H](Cc2ccc(O)cc2)C(=O)N[C@H](C(=O)N[C@@H](Cc2ccccc2)C(N)=O)C(C)C)NC(=O)[C@H](Cc2c[nH]c4ccccc24)NC(=O)[C@H](CCCCN)NC(=O)[C@H](C)NC(=O)[C@H]([C@@H](C)O)NC(=O)[C@H](CCCNC(=N)N)NC(=O)[C@H](CO)NC3=O)NC(=O)[C@H](CCCCN)NC(=O)[C@H](CC(=O)O)NC(=O)[C@H](CC(N)=O)NC(=O)[C@H](CC(=O)O)NC(=O)[C@@H]2CCCN2C1=O` (H-DCLGFMRKCIPDNDKCCRPNLVCSRTAKWCKYVF-NH2; disulfide 2-17, 9-23, 16-30): the results for the IC50 in test [1] and in test [2] were 970 nM and more than 5000 nM, respectively.

The record behind these values is ChEMBL document CHEMBL3414527, “Engineering potent and selective analogues of GpTx-1, a tarantula venom peptide antagonist of the Na(V)1.7 sodium channel” (J Med Chem, 2015).
